Drawing on US20230174485A1, “LIPOXYGENASE INHIBITORS” (SRI International, priority 2020, published 2023), this text covers IC50 for 19 compounds.

What is called IC50 is the concentration that inhibits the measured activity by half.

Type in all cases: biochemical
Experiment [1] addresses T1, recombinant 5-LOX (Homo sapiens, UniProt P09917).
T1 sequence (P09917 1-674): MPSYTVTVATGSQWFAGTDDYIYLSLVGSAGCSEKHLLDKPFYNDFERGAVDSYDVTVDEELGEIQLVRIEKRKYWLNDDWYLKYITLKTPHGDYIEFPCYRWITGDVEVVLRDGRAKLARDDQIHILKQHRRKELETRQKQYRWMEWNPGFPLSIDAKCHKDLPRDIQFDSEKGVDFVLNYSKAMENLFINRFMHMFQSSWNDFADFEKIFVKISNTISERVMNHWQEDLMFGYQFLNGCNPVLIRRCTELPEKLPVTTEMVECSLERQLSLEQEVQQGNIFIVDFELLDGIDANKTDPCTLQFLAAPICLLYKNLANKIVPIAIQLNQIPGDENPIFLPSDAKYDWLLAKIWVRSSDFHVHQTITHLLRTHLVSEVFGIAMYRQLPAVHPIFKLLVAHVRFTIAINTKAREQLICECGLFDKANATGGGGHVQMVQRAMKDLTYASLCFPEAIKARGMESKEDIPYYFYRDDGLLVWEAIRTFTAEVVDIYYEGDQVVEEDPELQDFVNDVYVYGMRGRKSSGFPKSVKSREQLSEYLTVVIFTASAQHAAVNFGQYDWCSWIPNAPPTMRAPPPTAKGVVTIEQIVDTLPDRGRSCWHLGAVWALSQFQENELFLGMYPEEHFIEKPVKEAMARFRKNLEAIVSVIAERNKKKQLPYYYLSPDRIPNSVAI
Kind of experiment: 5-LOX fluorescent assay. The note with it: several values in one cell = repeat determinations; read-out: IC50 (μM) values for in vitro lipoxygenase inhibition, 5-LOX. The protocol:
5-LOX FI assay Fluorescent Assay
The enzyme assay (100 μL) contained 50 mM Tris, pH 7.5, 0.1 mM EDTA, 0.3 mM CaCl2, 20 μM AA, 100 μM ATP, 1 μM DHR123, and recombinant 5-LOX cell lysate (0.5 μL/100 μL). Inhibitors (dissolved in DMSO) were plated at 1 μL into 96-well assay microplates followed by a 40 μL addition of a solution containing 5-LOX enzyme. Enzyme was pre-incubated with compounds for 15 mins. The assay was initiated by the addition of a 40 μL substrate solution containing AA and ATP, and 20 μL addition of a solution containing DHR123. Enzymatic reaction proceeded for 30 min with kinetic reading at 500 nm excitation & 536 nm emission in SpectraMax Paradigm (MolecularDevice). Percent inhibition was calculated for each compound dose for IC50 curve fitting using 4 Parameter Logistic Model or Sigmoidal Dose-Response Model.

Experiment [2] concerns the target T2, recombinant 12-LOX enzyme (Homo sapiens, UniProt P18054).
T2 sequence (P18054 1-663): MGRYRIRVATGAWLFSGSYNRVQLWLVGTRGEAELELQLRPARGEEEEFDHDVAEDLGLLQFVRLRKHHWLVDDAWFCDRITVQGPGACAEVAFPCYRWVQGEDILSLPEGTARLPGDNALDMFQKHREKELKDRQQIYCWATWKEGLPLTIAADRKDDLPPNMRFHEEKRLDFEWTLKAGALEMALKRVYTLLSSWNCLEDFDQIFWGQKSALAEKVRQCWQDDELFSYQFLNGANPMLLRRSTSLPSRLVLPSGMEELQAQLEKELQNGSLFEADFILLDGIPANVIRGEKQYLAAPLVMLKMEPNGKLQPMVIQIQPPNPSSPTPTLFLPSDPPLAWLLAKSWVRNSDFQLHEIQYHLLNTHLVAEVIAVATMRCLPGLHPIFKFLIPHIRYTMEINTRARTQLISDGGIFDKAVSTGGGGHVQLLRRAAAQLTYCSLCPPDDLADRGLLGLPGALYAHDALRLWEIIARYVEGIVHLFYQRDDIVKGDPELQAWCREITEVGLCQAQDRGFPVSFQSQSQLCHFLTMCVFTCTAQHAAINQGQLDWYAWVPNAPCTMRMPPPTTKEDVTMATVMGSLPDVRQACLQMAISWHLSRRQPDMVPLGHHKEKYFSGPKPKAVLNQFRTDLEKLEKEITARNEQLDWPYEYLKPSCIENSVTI
Kind of experiment: 12-LOX fluorescent assay. Particulars: several values in one cell = repeat determinations; read-out: IC50 (μM) values for in vitro lipoxygenase inhibition, 12-LOX. The method, then:
(§1) 12-LOX/15-LOX Fluorescent Assay
(§2) The enzyme assay (100 ul) contained 50 mM Tris, pH 7.5, 0.05% Tween-20, 20 μM AA/LA, 1 μM DHR123, and 100 nM recombinant 12-LOX enzyme/50 nM recombinant 15-LOX enzyme. Inhibitors (dissolved in DMSO) were plated at 1 μL into 96-well assay microplates followed by a 40 μL addition of a solution containing 12-LOX/15-LOX enzyme. Enzyme was pre-incubated with compounds for 15 mins. The assay was initiated by the addition of a 40 μL substrate solution containing AA/LA, and 20 μL addition of a solution containing DHR123. Enzymatic reaction proceeded for 30 min with kinetic reading at 500 nm excitation & 536 nm emission in SpectraMax Paradigm (MolecularDevice). Percent inhibition was calculated for each compound dose for IC50 curve fitting using 4 Parameter Logistic Model or Sigmoidal Dose-Response Model.

Experiment [3] addresses T3, recombinant 15-LOX enzyme (Homo sapiens, UniProt P16050).
T3 sequence (P16050 1-662): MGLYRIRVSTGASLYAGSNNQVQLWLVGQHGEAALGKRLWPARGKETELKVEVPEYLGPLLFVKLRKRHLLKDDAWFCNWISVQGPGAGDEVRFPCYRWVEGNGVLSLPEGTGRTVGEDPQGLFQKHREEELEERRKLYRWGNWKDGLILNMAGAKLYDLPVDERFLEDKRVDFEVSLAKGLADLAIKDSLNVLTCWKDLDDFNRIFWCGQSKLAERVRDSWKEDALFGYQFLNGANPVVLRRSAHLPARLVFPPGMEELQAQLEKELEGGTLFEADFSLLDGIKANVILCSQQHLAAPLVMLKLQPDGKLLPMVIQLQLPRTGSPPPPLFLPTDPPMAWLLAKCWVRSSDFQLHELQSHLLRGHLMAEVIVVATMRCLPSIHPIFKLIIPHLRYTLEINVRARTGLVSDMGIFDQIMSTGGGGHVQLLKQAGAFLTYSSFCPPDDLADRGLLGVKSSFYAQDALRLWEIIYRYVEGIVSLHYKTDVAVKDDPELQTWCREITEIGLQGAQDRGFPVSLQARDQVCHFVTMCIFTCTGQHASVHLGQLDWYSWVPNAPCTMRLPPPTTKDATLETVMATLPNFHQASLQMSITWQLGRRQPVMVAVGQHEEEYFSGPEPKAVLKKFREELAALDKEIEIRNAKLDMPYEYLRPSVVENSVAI
Kind of experiment: 15-LOX fluorescent assay. Particulars: several values in one cell = repeat determinations. The protocol:
as §1, §2

[4] abbreviates: read-out: IC50 (μM) values for in vitro lipoxygenase inhibition, 15-LOX.
Where [5] appears, read: IC50 (μM) values for in vitro lipoxygenase inhibition, 15-LOX.

Each structure is given as a SMILES string. “And” between values parts separate entries of the source, which are not always exact repeats. Equal values may be shown once. Read-outs that look alike come from different tables or passages of the source. Some results are limits rather than exact numbers.

As for `CN(C)CCOc1c2[nH]c3ccc(F)cc3c2c(F)c2[nH]c3ccc(F)cc3c12` [SS20308-0101-01, N,N-dimethyl-2-(2,8,12-trifluoro-5,11-dihydroindolo[3,2-b]carbazol-6-yloxy) ethanamine], the IC50 was 0.07 µM and 0.05 µM and 0.04 µM in experiment [1]; 0.08 µM and 0.1 µM and 0.12 µM in experiment [2]; 40 nM (2×) and 70 nM in experiment [3] (setting [4]).
In the case of `CN(C)CCOc1cc2c3ncccc3[nH]c2c2c1[nH]c1cccnc12` [SS20308-0070-01], the IC50 in experiment [1] was found to be 9.17 µM; in experiment [2], 6.32 µM; in experiment [3] (setting [4]) it was 4.53 µM.
For `CN(CCn1cncn1)c1cc2c(cc1-c1ccccc1)[nH]c1ccc(F)cc12` [SS20308-0182-01, N-(2-(1H-1,2,4-triazol-1-yl)ethyl)-6-fluoro-N-methyl-2-phenyl-9H-carbazol-3-amine], the IC50 came to 0.77 µM in experiment [1], 0.31 µM in experiment [2] and 1.4 µM in experiment [3] (setting [5]).
`CN(C)CCOc1c(Nc2ccccc2)ccc2c1[nH]c1ccc(F)cc12` [SS20308-0032-01, 1-(2-(dimethylamino)ethoxy)-6-fluoro-N-phenyl-9H-carbazol-2-amine]: the results for the IC50 in experiment [1], in experiment [2] and in experiment [3] (setting [4]) were 0.27 µM, 0.21 µM and 15.9 µM, respectively.
With `CN(C)CCc1cc(Nc2ccc(F)cc2Cl)cc2c1[nH]c1ccccc12` [SS20308-0277-01, N-(2-chloro-4-fluorophenyl)-1-(2-(dimethylamino)ethyl)-9H-carbazol-3-amine], the IC50 in experiment [1] came to 0.32 µM; in experiment [2], 0.04 µM; in experiment [3] (setting [4]), 0.57 µM.
For `Cc1c2[nH]c3ccccc3c2cc2[nH]c3ccccc3c12` [SS20308-0112-01, 6-methyl-5,11-dihydroindolo[3,2-b]carbazole] the same measures were above 100 µM, above 100 µM and above 100 µM.
For `Fc1ccc2[nH]c3cc4c(c(F)c3c2c1)CCN4CCn1cncn1` [SS20308-0207-01, 1-(2-(1H-1,2,4-triazol-1-yl)ethyl)-4,6-difluoro-1,2,3,9-tetrahydropyrrolo[2,3-b]carbazole] the same measures were 0.59 µM, 0.1 µM and 1.15 µM.
`CN(C)CCc1cc(Nc2cccc(Cl)c2)cc2c1[nH]c1ccccc12` [SS20308-0258-01, N-(3-chlorophenyl)-1-(2-(dimethylamino)ethyl)-9H-carbazol-3-amine]: the concentration for half-maximal inhibition (IC50) was 0.06 µM and 0.08 µM in experiment [1]; 0.16 µM in experiment [2]; 0.09 µM and 0.55 µM in experiment [3] (setting [4]).
Regarding `c1ccc2c(c1)CCc1cc(C3CCCCC3)c(NCCn3cncn3)cc1N2` [SS20308-0271-01, N-(2-(1H-1,2,4-triazol-1-yl)ethyl)-2-cyclohexyl-10,11-dihydro-5H-dibenzo[b,f]azepin-3-amine], the half-inhibitory concentration (IC50) in experiment [1] is 0.15 µM and 0.17 µM; in experiment [2] it was 0.11 µM and 0.12 µM; in experiment [3] (setting [4]) it was 0.28 µM and 0.32 µM.
Consider `Fc1ccc2[nH]c3cc(-c4ccccc4)c(NCCn4cncn4)cc3c2c1` [SS20308-0094-01, N-(2-(1H-1,2,4-triazol-1-yl)ethyl)-6-fluoro-2-phenyl-9H-carbazol-3-amine], for which the IC50 in experiment [2] is 30 nM and 40 nM (3×).
Consider `c1ccc(N(CCn2cncn2)c2ccc3[nH]c4ccccc4c3c2)cc1` [SS20308-0108-01, N-(2-(1H-1,2,4-triazol-1-yl)ethyl)-N-phenyl-9H-carbazol-3-amine], for which the IC50 in experiment [1] is 0.55 µM and 0.26 µM and 0.35 µM; in experiment [3] (setting [5]) it was 1 µM and 0.41 µM and 0.86 µM.
On to `CN(C)CCOc1c2[nH]c3ccccc3c2c(F)c2[nH]c3ccccc3c12` [SS20308-0102-01, 2-(12-fluoro-5,11-dihydroindolo[3,2-b]carbazol-6-yloxy)-N,N-dimethylethanamine], for which the IC50 in experiment [2] is 0.05 µM and 0.11 µM; in experiment [3] (setting [5]), 0.02 µM and 0.04 µM.
Consider `c1ccc(CN(CCCn2cncn2)c2ccc3[nH]c4ccccc4c3c2)cc1` [SS20308-0097-01, N-(3-(1H-1,2,4-triazol-1-yl)propyl)-N-benzyl-9H-carbazol-3-amine], for which the IC50 in experiment [1] is 33 µM and > 1 µM.
For `CC(C)CCOc1cc2c3ccccc3[nH]c2c2[nH]c3ccccc3c12` [SS20308-0127-01, 5-(isopentyloxy)-11,12-dihydroindolo[2,3-a]carbazole], the IC50 in experiment [2] was 0.09 µM and 0.04 µM and 0.14 µM; in experiment [3] (setting [4]) it was 0.12 µM and 0.08 µM and 0.17 µM.
As for `CN(C)CCc1cc(Nc2ccc(Cl)cc2)cc2c1[nH]c1ccccc12` [SS20308-0257-01, N-(4-chlorophenyl)-1-(2-(dimethylamino)ethyl)-9H-carbazol-3-amine], the half-maximal inhibitory concentration (IC50) in experiment [1] was 0.01 µM and 0.04 µM.
Regarding `CN(C)CCCc1c2[nH]c3ccccc3c2cc2[nH]c3ccccc3c12` [SS20308-0104-01, 3-(5,11-dihydroindolo[3,2-b]carbazol-6-yl)-N,N-dimethylpropan-1-amine], the IC50 in experiment [3] (setting [5]) turned out to be 0.02 µM.
For the compound `CN(C)CCOc1c(O)ccc2c1[nH]c1ccc(F)cc12` [SS20308-0004-01, 1-(2-(dimethylamino)ethoxy)-6-fluoro-9H-carbazol-2-ol], the figures for the IC50 in experiment [2] and in experiment [3] (setting [4]) were 3.19 µM and 2.55 µM, respectively.
Regarding `CN(C)CCCc1c2[nH]c3ccc(F)cc3c2c(F)c2[nH]c3ccc(F)cc3c12` [SS20308-0163-01, N,N-dimethyl-3-(2,8,12-trifluoro-5,11-dihydroindolo[3,2-b]carbazol-6-yl)propan-1-amine], the IC50 in experiment [1] is 20 nM (2×) and 40 nM and 50 nM and 10 nM.
Regarding `c1ccc(-c2cc3c(cc2NCCn2cncn2)Nc2ccccc2CC3)cc1` [SS20308-0152-01, N-(2-(1H-1,2,4-triazol-1-yl)ethyl)-2-phenyl-10,11-dihydro-5H-dibenzo[b,f]azepin-3-amine], the IC50 was 0.05 µM and 0.08 µM in experiment [2]; 0.08 µM and 0.2 µM in experiment [3] (setting [4]).
